How the values were obtained:
Format in all cases: cell-based
MB cells [1] = assay: 53BP1 nuclear foci immunofluorescence (DNA strand breaks); details: vs scrambled-transfected MB cells
Procedure: FIG. 13C-D show representative immunofluorescence images showing 53BP1 foci in D556Med cells transfected with miR-NC or miR-584-5p mimic (C) or scramble-siRNA or eIF4E3/HDAC1-siRNAs (D) and treated with or without 10 Gy of IR.
Bar graphs next to images show average number of 53BP1 foci/cell. The p-values were determined by two-way ANOVA followed by Sidak's multiple-comparisons test. Error bars represent mean±SEM. Because miR-584-5p induces apoptosis, it was reasoned that DNA strand breaks induced by miR-584-5p and eIF4E3/HDAC1 silencing may not be properly repaired. To confirm those findings, a functional assay was performed to monitor homologous recombination (HR) because HR-dependent events repair IR-induced double-strand breaks in G2 phase. The ISceI-based DR-GFP reporter assay, which measures the frequency of double-strand break repair by HR (Gunn, A., Bennardo, N., Cheng, A. & Stark, J. M. Journal of Biological Chemistry 286, 42470-42482, (2011); Pierce, A. J., Johnson, R. D., Thompson, L. H. & Jasin, M. Genes & Development 13, 2633-2638, (1999); and Stark, J. M., Pierce, A. J., Oh, J., Pastink, A. & Jasin, M. Molecular and Cellular Biology 24, 9305-9316, (2004)), was used. […] The p-values were calculated using either Student t-tests (mimic) or one-way ANOVA followed by Dunnett's multiple-comparisons test (siRNAs). […]

MB cells [2] = assay: FACS analysis of cell cycle progression; details: vs miR-NC or scramble-siRNA
Procedure: To gain more insight into the tumor-suppressing and VCR-sensitizing activities of miR-584-5p, it was determined how the miR-584-5p mimic affected cell cycle progression of MB cells. […] Bar graphs show DNA histograms quantified using the FlowJo software. In FIG. 9A, the p-values were determined by two-way ANOVA followed by Tukey's multiple-comparisons test. Error bars represent mean±SEM. […] In FIG. 9B, the p-values were calculated using standard Student t-tests. Error bars represent mean±SEM. […] Next, it was determined whether miR-584-5p's effect on cell cycle progression may be mediated via its target genes eIF4E3/HDAC1. […] Bar graphs show dot plots quantified using the FlowJo software. Next, it was tested whether miR-584-5p-induced cell cycle arrest led to apoptosis of MB cells. […] In FIG. 8C, the bar graphs reflect DNA histograms quantified using the FlowJo software and in FIG. 8D and FIG. 9C, the bar graphs show dot plots quantified using the FlowJo software. The p-values for panels 8A-D and FIG. 9C were determined by two-way ANOVA followed by Tukey's multiple-comparisons test. Error bars represent mean±SEM. ****, p<0.0001; ***, p<0.001; **, p<0.01; *, p<0.05.
Flow cytometry analysis of cell cycle and apoptosis. […] Cells were analyzed using either FACScantoII or LSRII cytometers, and data were quantified using FlowJo 10.2 software.

MB stem cells = assay: Medullosphere (tumor sphere) formation in serum-free stem cell media; details: D556Med cells
Procedure: Several research groups have posited the presence of tumor-initiating cells in MBs (Manoranjan, B. et al. Pediatr Res 71, 516-522, (2012)). Moreover, the tumor-initiating cells in general have not responded to radiation and chemotherapy drugs (Manoranj an, B. et al. Pediatr Res 71, 516-522, (2012)). Therefore, it was tested whether miR-584 may inhibit MB tumor-initiating cell proliferation. Consistent with the characteristics of tumor-initiating cells, MB cells cultured in serum-free stem cell media formed tumor spheres that were serially passaged for many cycles (FIG. 14A). Bar graphs show number and size of medullospheres obtained from D556Med cells transfected with miR-NC or miR-584-5p mimic. The p-value was calculated using a standard Student t-test. Error bars represent mean±SEM. […] The p-value was calculated using one-way ANOVA followed by Sidak's multiple-comparisons test. Error bars represent mean±SEM. These findings are highly significant because, this study is one of the first to propose a role for miR-584-5p and its target genes in regulating MB stem cell proliferation.

3′-UTR of eIF4E3 = assay: Dual luciferase 3′-UTR reporter assay (eIF4E3); details: miR-584-5p mimic in comparison with scrambled
Procedure: Dual luciferase assay. Wild-type or mutant 3′-UTR segments of the eIF4E3 and HDAC1 gene were cloned downstream of the luciferase gene in pGL3-promoter vector at the SacI and SpeI restriction sites. HEK293 cells were cotransfected with Renilla luciferase vector (pRLnull 380) and firefly luciferase vector containing pGL3-wt-eIF4E3; pGL3-mut-eIF4E3; or pGL3-wt-HDAC1, pGL3-mut-HDAC1, or pGL3 overnight and incubated in fresh complete medium for an additional 48 hours after transfection. Cells were then transfected with miRNA mimic (Invitrogen) for 24 hours. Next, cells were harvested with 1× passive lysis buffer (Promega) and luciferase activity was read using GLOMAX 20/20 luminometer (Promega).
Data are z-transformed. The cutoff criteria for each gene are fold change >2, sample intensity >10, and p-value <0.05. […] To validate the gene expression analysis and target prediction results, it was determined whether miR-584-5p reduced HDAC1/eIF4E3 expression by binding to their 3′-untranslated regions (3′-UTRs). […] Also shown are the portion of the miR-584-5p sequence (SEQ ID NO: 15; UAUGGUU) that binds to the wild-type 3′UTR and seed sequence mutant (SEQ ID NO: 16; […], top panel; and SEQ ID NO: 17; […]; bottom panel). Also shown is miR-584-5p seed sequence mutated sequences. […] The p-values were calculated using standard Student t-tests. […] The p-values were calculated using standard Student t-tests.

eIF4E3 = assay: qPCR and Western blot of eIF4E3 in MB cells; details: transcript and protein levels, all cell lines tested

miR-584-5p: microRNA mimic; nucleotide sequence UUAUGGUUUGCCUGGGACUGAG (SEQ ID NO: 1); purchased from Thermofisher (chemistry not given here)
53BP1 foci (MB cells [1]): significantly more 53BP1 foci | cell cycle progression (MB cells [2]): G2/M cell cycle arrest | number and size of medullospheres / MB stem cell proliferation (MB stem cells): significantly smaller and fewer spheres | luciferase activity, eIF4E3 3′-UTR with mutated miR-584-5p binding sites (3′-UTR of eIF4E3): no change in luciferase activity | luciferase activity, wild-type eIF4E3 3′-UTR construct (3′-UTR of eIF4E3): significantly reduced | expression of eIF4E3 (eIF4E3): significantly reduced expression
